# According to PMC9851725 (International Journal of Biological Macromolecules, 2023):
# Where two headings read alike, the source gives them in different places.
# Assays:
# [1] = test system: SARS-CoV-2; details: Vero-E6 cells ref 9; cited from earlier work
# [2] = test system: SARS-CoV-2; assay type: cell-based
# [3] = molecular target: T1, SARS-CoV-2 PLpro (Severe acute respiratory syndrome coronavirus 2, UniProt P0DTD1); assay type: biochemical
# [4] = molecular target: PLpro (Severe acute respiratory syndrome coronavirus 2, UniProt P0DTD1); test: Differential scanning fluorimetry; details: PLpro 2.5 μM; ATA 0.78 μM to 200 μM; 20 °C to 90 °C
# [5] = test system: SARS-CoV-2; assay type: in vivo, Syrian hamster; details: for reduction in virus RNA levels in throat swabs vs untreated control: daily day 0–4, day 5
# [6] = molecular target: T1, SARS-CoV-2 PLpro; assay type: binding
# [7] = 15, 30, 45 mg/kg oral; observation period of five days
# [8] = PLpro pre-incubated with GRL0617 for 2 h
# [9] = binding to PLpro, no pre-incubation
smiles,measurement,setting,value
"Nc1nc2nc[nH]c2c(=S)[nH]1 [6-TG, 6-thioguanine]",EC50,[1],~2000 nM
"O=C(O)C1=CC(=C(c2ccc(O)c(C(=O)O)c2)c2ccc(O)c(C(=O)O)c2)C=CC1=O [ATA, aurintricarboxylic acid]",% reduction,[2]; 25 μM ATA,3.1%
same,Viral RNA copy no./ml,[2]; 25 μM ATA,2404
same,% reduction,[2]; 75 μM ATA,84.2%
same,Viral RNA copy no./ml,[2]; 75 μM ATA,393
same,% reduction,[2]; 100 μM ATA,91.7%
same,Viral RNA copy no./ml,[2]; 100 μM ATA,207
same,% reduction,[2]; 200 μM ATA,92.2%
same,Viral RNA copy no./ml,[2]; 200 μM ATA,193
same,% reduction,[2]; 300 μM ATA,97.1%
same,Viral RNA copy no./ml,[2]; 300 μM ATA,71
same,% reduction,[2]; 400 μM ATA,99.0%
same,Viral RNA copy no./ml,[2]; 400 μM ATA,25
same,type of inhibition,[3]; best fit of kinetic data among four models (AICc),non-competitive
same,inhibition of PLpro enzymatic activity in library screening,"[3]; compounds up to 300 μM, 200 nM enzyme, 20 μM substrate, 5 mM DTT",significant inhibition
same,effect on PLpro structure (SYPRO Orange dye fluorescence),[4],stabilizes the protein structure
same,reduction of virus RNA levels in lung tissues vs untreated control,"[5]; 15, 30, 45 mg/kg oral, day 5",no significant reduction
same,lung pathology vs untreated,"[5]; 15, 30, 45 mg/kg oral, day 5, H&E",no noticeable difference
same,reduction in virus RNA levels in throat swabs vs untreated control,"[5]; group A, 15 mg/kg oral",0.4 log
same,reduction in virus RNA levels in throat swabs vs untreated control,"[5]; group B, 30 mg/kg oral",0.4 log
same,reduction in virus RNA levels in throat swabs vs untreated control,"[5]; group C, 45 mg/kg oral",1 log
same,N (stoichiometry),[6]; [8],1.30
same,ΔH (enthalpy change),[6]; [8],-2.403 kcal/mol
same,ΔS (entropy change),[6]; [8],14.6 cal/mol/deg
same,N (stoichiometry),[6]; [9],1.31
same,ΔH (enthalpy change),[6]; [9],-2.469 kcal/mol
same,ΔS (entropy change),[6]; [9],14.3 cal/mol/deg
same,enthalpy (ΔH),"[6]; one-site binding model, no pre-incubation",-2.47 kcal/mol
same,"weight loss, gross complications, or mortality",[7],no significant weight loss
"O=C1C=CC(=C(c2ccc(O)cc2)c2ccc(O)cc2)C=C1 [aurin, reference compound]",inhibition of PLpro,[3],didn't inhibit
